Test results reported in patent US20060194815A1, “Methods and compositions for modulating serum cortisol levels” (priority 2003, published 2006).

Biological target: T1, HMG-CoA reductase (Mus musculus, UniProt Q01237)
T1 construct: endogenous in cells; host or cells: Y1 mouse adrenal tumor cells (Brij 96 extract; sonicated homogenate for the direct test)
T1 sequence (Q01237 1-887): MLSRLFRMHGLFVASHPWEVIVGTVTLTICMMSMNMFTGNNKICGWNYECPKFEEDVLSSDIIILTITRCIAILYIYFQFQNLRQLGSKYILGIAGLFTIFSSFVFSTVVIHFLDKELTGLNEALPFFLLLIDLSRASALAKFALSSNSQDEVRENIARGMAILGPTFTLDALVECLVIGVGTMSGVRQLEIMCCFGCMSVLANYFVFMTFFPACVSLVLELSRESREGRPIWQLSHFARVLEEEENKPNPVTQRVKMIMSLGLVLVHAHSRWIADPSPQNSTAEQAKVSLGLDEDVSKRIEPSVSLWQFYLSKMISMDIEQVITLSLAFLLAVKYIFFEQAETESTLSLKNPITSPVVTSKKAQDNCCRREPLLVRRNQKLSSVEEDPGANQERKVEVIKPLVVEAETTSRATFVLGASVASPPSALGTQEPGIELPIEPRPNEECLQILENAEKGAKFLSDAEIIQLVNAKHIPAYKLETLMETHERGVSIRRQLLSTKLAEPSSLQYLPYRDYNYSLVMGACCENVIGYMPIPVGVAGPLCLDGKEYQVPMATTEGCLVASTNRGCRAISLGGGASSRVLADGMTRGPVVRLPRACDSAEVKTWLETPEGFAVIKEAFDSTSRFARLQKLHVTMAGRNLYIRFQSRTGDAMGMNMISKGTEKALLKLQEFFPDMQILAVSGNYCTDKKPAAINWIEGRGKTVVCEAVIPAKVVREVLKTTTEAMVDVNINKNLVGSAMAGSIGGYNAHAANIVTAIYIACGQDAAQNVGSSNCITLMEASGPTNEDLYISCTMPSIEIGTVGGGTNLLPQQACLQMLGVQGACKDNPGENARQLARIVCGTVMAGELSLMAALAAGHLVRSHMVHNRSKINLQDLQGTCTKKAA
Experiment: Direct effect on HMG-CoA reductase activity in sonicated Y1 cell homogenates
Type: biochemical
Conditions: control 10.1±0.9
Protocol: Cells were washed twice with ice-cold PBS and incubated with ice-cold assay buffer (0.1M sucrose, 40 mM KH2PO4, 30 mM EDTA, 50 mM KCl, 5 mM DTT, 0.25% (v/v) of Brij 96, at pH 7.4) on ice for 20 minutes. After centrifugation for 3 minutes at 14000 g (4° C.) the supernatants were collected and used for HMG-CoA reductase activity assay. The total 150 l assay mixture contained 100-200 g protein and the NADPH-generating system (2.5 mM NADP, 20 mM glucose 6-phosphate and 20 U/ml glucose 6-phosphate dehydrogenase). The reaction was started by adding substrate (^14C-HMG-CoA, 0.1 Ci) and stopped after 45 minutes by adding 10-1 of HCl 6M. ^3H-mevalonolactone was also added to the samples as an extraction recovery marker. After an additional 30 minutes incubation time, to allow complete lactonization of the product, the mixture was centrifuged. The supernatant was applied to Bond-Elut NH2 column and eluted with 1 ml of toluene/acetone (3:1). The eluate was discarded and further 4 ml of toluene/acetone was applied to the column and collected in a scintillation vial for counting ^14C-mevalonate and 3H-mevalonolactone signals (Berkhout et al., 1990).
In separate experiments cells were disrupted by sonication and then treated with procaine. The direct effect of the treatment on HMG-CoA reductase activity in the homogenates was determined as described above.

## CCN(CC)CCOC(=O)c1ccc(N)cc1 [procaine]
1 μM procaine
  HMG-CoA reductase activity in sonicated cells: 9.9±0.01 pmol/min/mg protein
10 μM procaine
  HMG-CoA reductase activity in sonicated cells: 10.3±0.6 pmol/min/mg protein
100 μM procaine
  HMG-CoA reductase activity in sonicated cells: 10.1±0.1 pmol/min/mg protein
